Reference: patent US20140106387A1, “METHOD FOR CONTROLLING NAD(P)/NAD(P)H RATIO BY OXIDOREDUCTASE” (MD BIOALPHA CO., LTD., priority 2006, published 2014)

Legend:
HEK293 cells = experiment: mitochondrial oxygen consumption in HEK293 cells; assay type: cell-based, human
From the text: FIG. 22 is a graph showing monitoring results of mitochondrial oxygen consumption using a Clark-type oxygen electrode;

cardiomyocytes [1] = experiment: mitochondrial membrane potential (TMRE fluorescence) in cardiomyocytes; assay type: cell-based
Method: For determination of the inner mitochondrial membrane potential (ΔΨm), 20 nM of TMRE (tetramethylrhodamine ethyl ester) as a fluorescent indicator was continuously applied to be loaded on cells. In order to monitor mitochondrial Ca^2+, cells on glass coverslips were loaded with 10 μM Rhod-2 AM via cold loading/warm incubation. In order to monitor cytosolic Ca^2+, cells were co-loaded with 10 μM Fluo-4 AM at 37′C for 30 min. The cells were washed twice with a KB solution, and mounted in a perfusion chamber. Fluorescent imaging was taken using a confocal laser scanning microscope (LSM-510 META, Carl Zeiss) at a magnification of ×200 and ×400, in conjunction with appropriate laser lines and a filter set. Image analysis was carried out using LSM-510 META software (Zeiss). Images for TMRE (red fluorescence), Rhod-2 (red fluorescence) and Fluo-4 (green fluorescence) were obtained using an inverted Zeiss 510META laser-scanning confocal microscope equipped with ×63 numerical aperture, 1.4 oil-immersion planapochromat lens. Green fluorescence and red fluorescence were illuminated with light of 488 nm and 543 nm. Incident light was passed through a 545 nm dichroic mirror and observed via a 500 to 530 nm band-pass (green) filter and a 560 nm long-pass (red) barrier filter.
However, such effects were not observed in HEK293 cells. […]

NQO1 = experiment: NAD(P)H recycling assay (decrease of NAD(P)H by NQO1-activating candidate compounds); assay type: biochemical
Method: (10) NAD(P)H Recycling Assay
An NADH recycling assay was carried out using the above-extracted S9 supernatant or human recombinant NQO1 (hrNQO1). 20 μg of the S9 supernatant or 0.5 unit of hrNQO1 in conjunction with 200 μM NAD(P)H were added to a 25 mM Tris/HCl (pH 7.4) solution containing 0.2 mg/mL bovine serum albumin. The enzymatic reaction was initiated with addition of a […] compound and absorbance changes were monitored and recorded at 340 nm for 10 min.
For a variety of NQO1-activating candidate compounds as listed in Table 1 below, a decrease of NAD(P)H was measured based on the aforesaid experimental method (disclosed in Section 10 hereinbefore: NADH recycling assay). In addition, according to the experimental method given in Example 23, the body weight of ob/ob mice after four weeks was measured.
In this connection, the decreasing degree of NAD(P)H was expressed as a relative amount of NAD(P)H measured upon administration of the NQO1-activating candidate compound, by taking the amount of NAD(P)H in the absence of the NQO1 activator NAD(P)H to be 100. In addition, the degree of the body weight loss was expressed as a percentage of the body weight of ob/ob mice with administration of the NQO1-activating candidate compound, relative to the body weight of ob/ob mice without administration of the NQO1-activating candidate compound (control) after four weeks.

HepG2 cells = experiment: intracellular NADH / NAD(P)H concentration in HepG2 cells; assay type: cell-based, human
Method: A water-soluble tetrazolium salt was used to monitor the amount of NAD(P)H through its reduction to a yellow colored formazan dye. The total amount of NAD(P)H within viable cells in the medium was determined periodically by a spectrophotometer. Cells were seeded in 96-well plates (2×10^4 cells/well) and were cultured in 100 μl of a medium containing fetal bovine serum (FBS) and antibiotics for 24 hours. Immediately after treatment of the cells with a candidate compound (e.g., pyrano-1,2-naphthoquinone) at indicated concentrations and a 1/10 volume of a CCK-8 solution (Dojindo Molecular Technology), absorbance measurements were carried out using a spectrophotometer. […] In addition, a medium blank was prepared with only medium and physiological saline. In order to monitor monochromatic fluorescence (350 nm), light was illuminated using a 75 W xenon arc lamp directed via a 10 Hz chopper wheel; specific fluorescence intensity was measured at a wavelength of 405±15 nm and 460±10 nm.

[2] = spontaneous locomotor activity; assay type: in vivo, mouse; settings: C57BL/6 DIO mice, 3 hours after administration, measured for 7 hours
Method: Pyrano-1,2-naphthoquinone was administered to C57BL/6 DIO mice, and 3 hours later spontaneous locomotor activity was measured using Versa MAX Activity Monitors & Analyzer (AccuSan Instruments, Columbus, Ohio, USA). […] In order to distinguish between spontaneous locomotor and stereotypic/grooming behavior, animal activity was measured by taking continuous interference of two different scanning lines caused by mice as an effective determination standard. The pyrano-1,2-naphthoquinone-administered group, the vehicle-administered group and the control group were respectively placed in each measuring apparatus, and activity and motion of animals were measured for 7 hours. For acclimation of the animals to the new environment, mice were placed in the apparatus 2 hours prior to measurement.

cardiomyocytes [3] = experiment: intracellular NAD(P)H fluorescence in cardiomyocytes; assay type: cell-based
Method: HepG2 (human hepatoma cell line), HEK293 (Human embryonic kidney cell line), and C2C12/L6 myoblasts were purchased from American Type Culture Collection (ATCC, Manassas, Va., USA). LKB-/- MEFs were purchased from R.A. DePinho. Rat ventricular myocytes were enzymatically isolated from the heart of adult […] by a known method. Phosphorylation of AMPK ([…]) and ACC ([…]) was measured by Western blot analysis using Cell Signaling Technologies and pan- and phospho-specific antibodies (Upstate Biotechnology, Inc., Lake Placid, N.Y.). In order to monitor monochromatic fluorescence (350 nm), light was illuminated using a 75 W xenon arc lamp directed via a 10 Hz chopper wheel; specific fluorescence intensity was measured at a wavelength of 405±15 nm and 460±10 nm. Even though autofluorescence at 460 nm may occur from unknown intracellular components or cytosolic NAD(P)H, most of the light detected by the method of the present invention was generated from mitochondrial NAD(P)H. Specifically, the NQO1 activity and changes in the intracellular NAD(P)H fluorescence concentration in the presence/absence of NQO1 activity were measured in HepG2, HEK293 and pSG5 HA-NQO1 or pSG5 HA NQO1 […]-inserted HEK293 cells.

## CC1(C)CCC2=C(O1)c1ccccc1C(=O)C2=O [βL, 2,2-Dimethyl-3,4-dihydro-2H-benzo[h]chromene-5,6-dione]
HEK293 cells
  increased oxygen consumption: not observed
Cardiomyocytes [1]
  decrease of TMRE fluorescence: about 20%
NQO1; relative amount of NAD(P)H, amount in the absence of the NQO1 activator taken to be 100
  Residual amount of NAD(P)H(%): 61.27 ± 1.09%
NQO1; summary of Table 1 in words
  decrease of NAD(P)H and consequent body weight reduction: significant decrease of NAD(P)H
HepG2 cells; HepG2 cells having NQO1 activity, NAD(P)H fluorescence
  decrease of NAD(P)H: about 40%
HepG2 cells; HepG2 having an NQO1 activity, treatment for 2 hours, real-time measurement
  intracellular NADH concentration: concentration-dependent decrease of NADH
[2]
  spontaneous locomotor activity: significant difference in the motion and activity of animals
Cardiomyocytes [3]
  decrease of NAD(P)H: about 40%
